Counter-ions that a name gives are not always drawn. Like-named read-outs stand apart in the source and are kept apart here.
Columns and labels:
trypsin = target: T1, trypsin (Bos taurus, UniProt P00760); test: in vitro trypsin inhibition, fluorogenic substrate benzoyl-Arg-7-amido-4-methylcoumalin; type: biochemical; conditions: 0.2 M Tris-HCl, 0.02 M CaCl2, 0.005% Triton X-100, pH 8.0, 25°C, 60 minutes
T1 sequence (P00760 24-246): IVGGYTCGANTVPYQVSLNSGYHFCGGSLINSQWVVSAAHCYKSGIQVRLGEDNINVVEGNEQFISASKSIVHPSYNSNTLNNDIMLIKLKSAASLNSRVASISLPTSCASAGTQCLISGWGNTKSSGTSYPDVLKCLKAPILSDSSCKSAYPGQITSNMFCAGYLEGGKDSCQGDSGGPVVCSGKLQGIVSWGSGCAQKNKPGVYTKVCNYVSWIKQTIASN
Excerpt: (§1) The method disclosed in JP-A-2-101017 was slightly modified and used for the measurement of the function of typical compounds belonging to the compound (I) of the present invention (Compounds 39, 3, 2, 26, 31 and 10) in terms of their in vitro activities to inhibit trypsin, thrombin, plasmin, factor Xa and elastase.
(§2) Substrate used for the enzyme reaction were: benzoyl-Arg-7-amido-4-methylcoumalin for trypsin, Boc-Val-Pro-Arg-7-amido-4-methylcoumalin for thrombin, Boc-Val-Leu-Lys-7-amido-4-methylcoumalin for plasmin, Boc-Ile-Glu-Gly-Arg-7-amido-4-methylcoumalin for factor Xa and methoxysuccinyl-Ala-Ala-Pro-Val-7-amido-4-methylcoumalin for elastase. […] Each enzyme reaction was carried out in 0.2 M Tris-HCl buffer supplemented with 0.02 M CaCl₂ and 0.005% Triton X-100 at pH 8.0 for trypsin, thrombin, plasmin and factor Xa or at pH 7.2 for elastase. Each sample solution to be measured was mixed with each enzyme solution and the reaction mixture was incubated at 25°C for 60 minutes in the case of trypsin or for 20 minutes in other cases of enzymes. In this instance, a compound disclosed in JP-A-51-138642 was used as a Comparative Example 1, and a compound disclosed in JP-A-63-165357 as a Comparative Example 2.

thrombin = thrombin (Homo sapiens, UniProt P00734); test: in vitro thrombin inhibition, substrate Boc-Val-Pro-Arg-7-amido-4-methylcoumalin; type: biochemical; conditions: 0.2 M Tris-HCl, 0.02 M CaCl2, 0.005% Triton X-100, pH 8.0, 25°C, 20 minutes
plasmin = plasmin (Homo sapiens, UniProt P00747); test: in vitro plasmin inhibition, substrate Boc-Val-Leu-Lys-7-amido-4-methylcoumalin; type: biochemical
Excerpt: as §1, §2

factor Xa = factor Xa (Homo sapiens, UniProt P00742); test: in vitro factor Xa inhibition, substrate Boc-Ile-Glu-Gly-Arg-7-amido-4-methylcoumalin; type: biochemical; conditions: 0.2 M Tris-HCl, 0.02 M CaCl2, 0.005% Triton X-100, pH 8.0, 25°C, 20 minutes
male rats of Wistar line = test: caerulein-induced acute pancreatitis edema, prevention by oral administration; type: in vivo; conditions: for Serum amylase / % Pancreas wt.: 15 minutes before caerulein (40 µg/kg i.p. twice); for Serum amylase: blood 6 hours after second caerulein; for % Pancreas wt.: pancreas wet weight to body weight, 6 hours after second caerulein
Description: […] Experiments were started at eight o'clock in the morning, with the animals in each group under satiation conditions. After measuring their body weights, caerulein pancreatitis was prepared by intraperitoneal administration of caerulein (mfd. by Kyowa Hakko K.K.) (40 μg/kg) twice at one hour interval. Six hours after the second administration, each rat was subjected to laparotomy to collect blood from the abdominal aorta and to excise the pancreas. […] Wet weight of the excised pancreas was measured and its ratio to the body weight was calculated. As a comparative example, the same process was repeated except that the inventive compound was replaced by the compound used in Pharmacological Trial 1 as Comparative Example 1, a compound which has been disclosed in JP-A-51-138642.

[1] = 0.2 M Tris-HCl, 0.02 M CaCl2, 0.005% Triton X-100, pH 8.0, 25°C, 20 minutes
[2] = 100 mg/kg oral, caerulein alone 817 ± 103
[3] = 100 mg/kg oral, caerulein alone 0.88 ± 0.07

plasmin, sequence (P00747 581-810 limits assumed, species assumed): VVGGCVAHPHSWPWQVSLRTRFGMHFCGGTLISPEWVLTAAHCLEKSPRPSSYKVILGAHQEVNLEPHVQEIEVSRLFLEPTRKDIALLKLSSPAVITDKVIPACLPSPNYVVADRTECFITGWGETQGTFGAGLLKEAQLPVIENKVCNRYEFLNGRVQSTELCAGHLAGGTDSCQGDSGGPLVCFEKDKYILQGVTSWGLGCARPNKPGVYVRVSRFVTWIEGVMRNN
plasmin, sequence (P00747 97-580 partner limits assumed, species assumed): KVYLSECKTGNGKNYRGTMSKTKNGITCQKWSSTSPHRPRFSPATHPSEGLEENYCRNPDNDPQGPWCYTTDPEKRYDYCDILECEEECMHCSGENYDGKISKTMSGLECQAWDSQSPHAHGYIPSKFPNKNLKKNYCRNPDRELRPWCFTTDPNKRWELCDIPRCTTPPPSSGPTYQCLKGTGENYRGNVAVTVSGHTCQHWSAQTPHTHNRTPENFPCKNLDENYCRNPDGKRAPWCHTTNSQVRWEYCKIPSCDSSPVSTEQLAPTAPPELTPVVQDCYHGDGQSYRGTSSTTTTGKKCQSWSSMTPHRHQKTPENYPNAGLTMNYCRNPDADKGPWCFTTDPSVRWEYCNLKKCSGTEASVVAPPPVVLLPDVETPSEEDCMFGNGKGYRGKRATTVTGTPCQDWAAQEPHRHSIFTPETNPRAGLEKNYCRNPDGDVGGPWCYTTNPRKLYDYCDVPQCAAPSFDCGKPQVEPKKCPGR
factor Xa, sequence (P00742 235-488 limits assumed): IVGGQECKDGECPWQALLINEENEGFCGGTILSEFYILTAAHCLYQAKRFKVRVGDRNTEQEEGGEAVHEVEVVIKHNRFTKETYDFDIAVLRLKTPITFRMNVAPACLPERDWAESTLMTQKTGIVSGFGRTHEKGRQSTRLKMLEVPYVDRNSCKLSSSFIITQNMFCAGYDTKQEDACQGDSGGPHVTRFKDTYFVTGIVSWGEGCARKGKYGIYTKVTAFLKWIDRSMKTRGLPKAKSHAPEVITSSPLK
factor Xa, sequence (P00742 41-179 partner limits assumed): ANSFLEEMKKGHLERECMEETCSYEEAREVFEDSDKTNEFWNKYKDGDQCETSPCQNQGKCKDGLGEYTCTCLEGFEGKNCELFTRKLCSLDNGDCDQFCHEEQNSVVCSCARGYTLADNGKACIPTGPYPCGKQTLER

With `N=C(N)Nc1ccc(C(=O)Oc2cc(Cl)cc(OC(=O)C3CCCCC3)c2)cc1` [Compound 31, 3-chloro-5-cyclohexylcarbonyloxyphenyl 4-guanidinobenzoate] as the molecule, how does the IC50 (trypsin) read?
The IC50 was 0.47 nM.

What about the IC50 (thrombin) of the same molecule?
Its IC50 is 580 nM.

What about the IC50 (plasmin; [1]) of the same molecule?
The IC50 was 10 nM.

What about the IC50 (factor Xa) of the same molecule?
The IC50 was 3600 nM.

What does the source list for `N=C(N)Nc1ccc(C(=O)Oc2cccc(OC(F)(F)F)c2)cc1` [Compound 2, 3-trifluoromethoxyphenyl 4-guanidinobenzoate]?
IC50 (trypsin): 0.17 nM; IC50 (thrombin): 77 nM; IC50 (plasmin; [1]): 43 nM; IC50 (factor Xa): 430 nM

`CON=C(C)c1cccc(OC(=O)c2ccc(NC(=N)N)cc2)c1` [Compound 10, 3-(1-methoxyiminoethyl)phenyl 4-guanidinobenzoate] was tested. Which IC50 (trypsin) did it give?
The IC50 was 0.52 nM.

And the IC50 (thrombin)?
Its IC50 is 140 nM.

What about the IC50 (plasmin; [1]) of the same molecule?
Its IC50 is 63 nM.

And the IC50 (factor Xa)?
The IC50 was 2500 nM.

What does the source list for `N=C(N)Nc1ccc(C(=O)Oc2cc(Cl)cc(Cl)c2)cc1` [Comp. Ex. 2, reference compound]?
IC50 (trypsin): 9.5 nM; IC50 (thrombin): 880 nM; IC50 (plasmin; [1]): 90 nM; IC50 (factor Xa): 8500 nM

For `CS(=O)(=O)O.N=C(N)Nc1ccc(C(=O)Oc2cc(Cl)cc(OS(=O)(=O)C=Cc3ccccc3)c2)cc1` [Compound 39, 3-chloro-5-(β-styrenesulfonyloxy)phenyl 4-guanidinobenzoate methanesulfonic acid salt], which IC50 (trypsin) is on record?
Its IC50 is 0.36 nM.

What about the IC50 (thrombin) of the same molecule?
The IC50 was 21 nM.

And the IC50 (plasmin; [1])?
The IC50 was 12 nM.

And the IC50 (factor Xa)?
The IC50 was 160 nM.

And the Serum amylase (male rats of Wistar line; 10 mg/kg oral, caerulein alone 817 ± 103, no treatment 134 ± 11)?
Its Serum amylase is 556 ± 31 IU/ml.

And the “% Pancreas wt.” value (male rats of Wistar line; 10 mg/kg oral, caerulein alone 0.88 ± 0.07, no treatment 0.38 ± 0.06)?
The value was 0.99 ± 0.16%.

And the Serum amylase (male rats of Wistar line; 50 mg/kg oral, caerulein alone 817 ± 103)?
The Serum amylase was 362 ± 15 IU/ml.

What about the “% Pancreas wt.” value (male rats of Wistar line; 50 mg/kg oral, caerulein alone 0.88 ± 0.07) of the same molecule?
Its value is 0.66 ± 0.04%.

What about the Serum amylase (male rats of Wistar line; [2]) of the same molecule?
The Serum amylase was 99 ± 17 IU/ml.

What about the “% Pancreas wt.” value (male rats of Wistar line; [3]) of the same molecule?
Its value is 0.39 ± 0.06%.

And the “histological observation of the pancreas” value (male rats of Wistar line; rat groups of 10, 50 and 100 mg oral doses, caerulein pancreatitis)?
Its value is “no evident appearance of vacuoles inside the acinic cells, and the appearance of interstitial edema was almost negligible”.

With `CN(C)C(=O)COC(=O)Cc1ccc(OC(=O)c2ccc(NC(=N)N)cc2)cc1` [Comp. Ex. 1, reference compound] as the molecule, how does the IC50 (trypsin) read?
Its IC50 is 25 nM.

And the IC50 (plasmin)?
Its IC50 is 120 nM.

What about the IC50 (factor Xa) of the same molecule?
Its IC50 is 56000 nM.

What about the Serum amylase (male rats of Wistar line; [2]) of the same molecule?
Its Serum amylase is 216 ± 7 IU/ml.

What about the “% Pancreas wt.” value (male rats of Wistar line; [3]) of the same molecule?
Its value is 0.47 ± 0.09%.

What about the “histological observation of the pancreas (pancreatitis-specific signs)” value (male rats of Wistar line; rat group of 100 mg oral administration, caerulein pancreatitis) of the same molecule?
Its value is “decrease in the pancreatitis-specific signs, but the reducing effects were inferior to those of Compound 39”.

With `N=C(N)Nc1ccc(C(=O)Oc2ccc(OC(F)(F)F)cc2)cc1` [Compound 3, 4-trifluoromethoxyphenyl 4-guanidinobenzoate] as the molecule, how does the IC50 (trypsin) read?
Its IC50 is 0.84 nM.

And the IC50 (thrombin)?
The IC50 was 39 nM.

And the IC50 (plasmin; [1])?
The IC50 was 18 nM.

What about the IC50 (factor Xa) of the same molecule?
Its IC50 is 440 nM.

For `CC1(C(=O)Oc2cc(Cl)cc(OC(=O)c3ccc(NC(=N)N)cc3)c2)CC1` [Compound 26, 3-chloro-5-(1-methylcyclopropylcarbonyloxy)phenyl 4-guanidinobenzoate methanesulfonic acid salt], which IC50 (trypsin) is on record?
Its IC50 is 0.25 nM.

And the IC50 (thrombin)?
Its IC50 is 69 nM.

What about the IC50 (plasmin; [1]) of the same molecule?
The IC50 was 15 nM.

What about the IC50 (factor Xa) of the same molecule?
Its IC50 is 340 nM.

From EP0486702A1, “PHENYL 4-GUANIDINOBENZOATE DERIVATIVE, PROCESS FOR PRODUCING THE SAME, AND PROTEASE INHIBITOR CONTAINING THE SAME” (Asahi Kasei Kogyo Kabushiki Kaisha, priority 1990, dated 1991)
